How the values were obtained:
Format in all cases: biochemical
[1] = biological target: T1, FGFR4 (Homo sapiens, UniProt P22455); assay: FGFR4 kinase activity inhibition assay (LanthaScreen TR-FRET); conditions: FGFR4 kinase, TR-FRET; read-out: IC50 (nM) FGFR4
T1 construct: FGFR4's cytoplasmic domain [460-802 (terminal) amino acids]; purchased Carna 08-136
Method in brief: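 GST-tagged cytoplasmic domains (FGFR2 aa 399-821; FGFR4 aa 460-802) were preincubated 10 min at 23 °C with compound (top 1 µM, threefold dilutions). Then 28 nM fluorescein-poly GT and 28 µM ATP were added for 30 min at 23 °C in HEPES pH 7.5 buffer. Tb-PY20 TR-FRET 520/495 ratio gave % inhibition versus DMSO and no-enzyme controls.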

[2] = biological target: T2, FGFR1 (Homo sapiens, UniProt P11362); assay: FGFR1 kinase activity inhibition assay (LanthaScreen TR-FRET); conditions: FGFR1 kinase, TR-FRET; read-out: IC50 (nM) FGFR1
T2 construct: cytoplasmic domain [398-822 (terminal) amino acids]; purchased Carna 08-133
Method in brief: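 Emission ratio 520 nm/495 nm by TR-FRET after stopping reaction with 10 mM EDTA and 60 min incubation at 22°C. Inhibition normalized between no-enzyme (min) and DMSO (max) controls, then fitted to a four-parameter curve (Top, Bottom, HillSlope).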

[3] = biological target: T3, FGFR2 (Homo sapiens, UniProt P21802); assay: FGFR2 kinase activity inhibition assay (LanthaScreen TR-FRET); conditions: FGFR2 kinase, TR-FRET; read-out: IC50 (nM) FGFR2
T3 construct: FGFR2's cytoplasmic domain [399-821 (terminal) amino acids]; purchased Carna 08-134
Method in brief: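 GST-fused FGFR2 cytoplasmic domain (aa 399-821) was run as in the FGFR1 protocol: preincubated 10 min at 23 °C with compound (3-fold series from 1 µM) in 50 mM HEPES pH 7.5, 10 mM MgCl2, 4 mM DTT, 1% DMSO. A 2× mix of 28 nM fluorescein-poly GT/28 µM ATP then reacted 30 min. Tb-PY20/EDTA quench preceded the TR-FRET 520/495 read.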

[4] = biological target: T4, FGFR3 (Homo sapiens, UniProt P22607); assay: FGFR3 kinase activity inhibition assay (LanthaScreen TR-FRET); conditions: for IC50: FGFR3 kinase, TR-FRET, read-out: IC50 (nM) FGFR3; for Selectivity (X) FGFR1/FGFR3: ratio of IC50 FGFR1/FGFR3, selectivity towards FGFR3; for Selectivity (X) FGFR2/FGFR3: ratio of IC50 FGFR2/FGFR3, selectivity towards FGFR3; for Selectivity (X) FGFR4/FGFR3: ratio of IC50 FGFR4/FGFR3, selectivity towards FGFR3
T4 construct: FGFR3's cytoplasmic domain [436-806 (terminal) amino acids]; purchased Carna 08-135
Method in brief: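 Read-out is TR-FRET, with the 520 nm/495 nm emission ratio normalised to DMSO (max) and enzyme-free (min) controls. Enzyme was the FGFR3 cytoplasmic domain, residues 436-806. EDTA (10 mM) stopped the reaction, followed by 60 min at 22 °C before reading.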

T1 sequence (P22455 460-802): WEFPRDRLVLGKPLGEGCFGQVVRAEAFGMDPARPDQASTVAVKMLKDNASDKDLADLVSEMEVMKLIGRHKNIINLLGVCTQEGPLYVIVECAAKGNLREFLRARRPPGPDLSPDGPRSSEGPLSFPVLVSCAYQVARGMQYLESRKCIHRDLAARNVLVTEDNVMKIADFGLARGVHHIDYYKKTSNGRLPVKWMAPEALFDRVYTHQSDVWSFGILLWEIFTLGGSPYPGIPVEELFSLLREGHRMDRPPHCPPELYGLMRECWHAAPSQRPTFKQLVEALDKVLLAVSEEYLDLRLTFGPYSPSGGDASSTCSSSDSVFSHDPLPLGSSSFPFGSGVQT
T2 sequence (P11362 398-822): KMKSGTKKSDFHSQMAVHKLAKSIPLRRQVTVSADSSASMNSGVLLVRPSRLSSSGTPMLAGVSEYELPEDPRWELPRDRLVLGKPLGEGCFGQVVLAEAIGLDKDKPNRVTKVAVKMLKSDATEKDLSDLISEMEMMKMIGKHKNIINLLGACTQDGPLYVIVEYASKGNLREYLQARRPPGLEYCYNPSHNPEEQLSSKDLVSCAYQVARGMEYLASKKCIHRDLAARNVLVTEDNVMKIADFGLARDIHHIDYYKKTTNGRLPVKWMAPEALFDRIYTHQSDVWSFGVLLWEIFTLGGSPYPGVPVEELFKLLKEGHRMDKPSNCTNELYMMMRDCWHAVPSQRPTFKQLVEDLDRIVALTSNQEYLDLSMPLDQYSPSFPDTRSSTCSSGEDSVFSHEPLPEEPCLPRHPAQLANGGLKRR
T3 sequence (P21802 399-821): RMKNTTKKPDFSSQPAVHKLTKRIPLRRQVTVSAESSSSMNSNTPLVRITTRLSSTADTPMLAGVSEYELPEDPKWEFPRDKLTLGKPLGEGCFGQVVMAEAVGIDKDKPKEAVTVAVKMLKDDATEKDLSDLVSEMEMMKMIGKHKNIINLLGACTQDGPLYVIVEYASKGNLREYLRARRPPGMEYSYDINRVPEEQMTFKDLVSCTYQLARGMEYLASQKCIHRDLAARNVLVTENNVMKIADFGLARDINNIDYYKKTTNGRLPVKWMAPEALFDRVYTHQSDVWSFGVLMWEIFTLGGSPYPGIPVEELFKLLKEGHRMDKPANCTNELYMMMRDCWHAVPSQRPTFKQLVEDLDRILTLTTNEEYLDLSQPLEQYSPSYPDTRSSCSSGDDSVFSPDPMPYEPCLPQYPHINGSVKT
T4 sequence (P22607 436-806): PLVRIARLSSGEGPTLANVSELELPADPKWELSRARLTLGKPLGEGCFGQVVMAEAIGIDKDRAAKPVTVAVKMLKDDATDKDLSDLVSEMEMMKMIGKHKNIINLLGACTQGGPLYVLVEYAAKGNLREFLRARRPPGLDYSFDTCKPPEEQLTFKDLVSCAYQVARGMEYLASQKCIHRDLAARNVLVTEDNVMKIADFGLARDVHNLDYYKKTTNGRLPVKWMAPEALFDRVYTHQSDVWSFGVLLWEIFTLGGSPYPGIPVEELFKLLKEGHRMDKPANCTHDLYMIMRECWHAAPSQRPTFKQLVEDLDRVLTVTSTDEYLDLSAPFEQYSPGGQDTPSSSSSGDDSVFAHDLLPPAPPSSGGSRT

SMILES | IC50 [1] | IC50 [2] | IC50 [3] | IC50 [4] | Selectivity (X) FGFR1/FGFR3 [4] | Selectivity (X) FGFR2/FGFR3 [4] | Selectivity (X) FGFR4/FGFR3 [4]
C[C@@H](Oc1cc(C2CC2)c2[nH]nc(-c3cnn(C)c3)c2c1)c1c(Cl)cncc1Cl [Example 7, (R)-7-cyclopropyl-5-(1-(3,5-dichloropyridin-4-yl)ethoxy)-3-(1-methyl-1H-pyrazol-4-yl)-1H-indazole] | > 100 nM | > 100 nM | 10 to 100 nM | 1 to 10 nM | B (B represents 20 ≤ multiple X<50) | A (A represents 1 ≤ multiple X<20) | B (B represents 20 ≤ multiple X<50)
Cc1cc2nccnc2c(C(C)Oc2cc(C)c3[nH]nc(-c4cnn(C)c4)c3c2)n1 (stereo not shown) [Example 233, 7-methyl-5-(1-((7-methyl-3-(1-methyl-1H-pyrazol-4-yl)-1H-indazol-5-yl)oxy)ethyl)pyridino[3,4-b]pyrazine] | > 100 nM | 10 to 100 nM | 1 to 10 nM | 1 to 10 nM | B (B represents 20 ≤ multiple X<50) | A (A represents 1 ≤ multiple X<20) | C (C represents 50 ≤ multiple X<100)
Cc1ccn2nccc2c1C(C)Oc1ccc2[nH]nc(-c3cnn(C)c3)c2c1 (stereo not shown) [Example 155, 3-(1-methyl-1H-pyrazol-4-yl)-5-(1-(5-methylpyrazolo [1,5-a]pyridin-4-yl)ethoxy)-1H-indazole] | 10 to 100 nM | 10 to 100 nM | 1 to 10 nM | < 1 nM | B (B represents 20 ≤ multiple X<50) | A (A represents 1 ≤ multiple X<20) | B (B represents 20 ≤ multiple X<50)
CCc1cc(C(C)Oc2ccc3[nH]nc(-c4cnn(C)c4)c3c2)c2nccnc2c1 (stereo not shown) [Example 138, 7-ethyl-5-(1-((3-(1-methyl-1H-pyrazol-4-yl)-1H-indazol-5-yl)oxy)ethyl)quinoxaline] | 10 to 100 nM | 10 to 100 nM | 1 to 10 nM | < 1 nM | C (C represents 50 ≤ multiple X<100) | A (A represents 1 ≤ multiple X<20) | C (C represents 50 ≤ multiple X<100)
CNCCNC(=O)c1ccc2[nH]nc(-c3cn(C)nn3)c2c1 [Example 74, 3-(1-methyl-1H-1,2,3-triazol-4-yl)-N-(2-(methylamino)ethyl)-1H-indazole-5-carboxamide] | > 100 nM | > 100 nM | > 100 nM | 10 to 100 nM | C (C represents 50 ≤ multiple X<100) | B (B represents 20 ≤ multiple X<50) | D (D represents 100 ≤ multiple X)
CC(Oc1ccc2[nH]nc(-c3cnn(C4CN(S(C)(=O)=O)C4)c3)c2c1)c1cccc2nccnc12 (stereo not shown) [Example 195] | 10 to 100 nM | 10 to 100 nM | 1 to 10 nM | < 1 nM | B (B represents 20 ≤ multiple X<50) | A (A represents 1 ≤ multiple X<20) | B (B represents 20 ≤ multiple X<50)
C[C@@H](Oc1cc(F)c2[nH]nc(-c3cnn(CCN(C)C)c3)c2c1)c1c(Cl)cncc1Cl [Example 15, (R)-2-(4-(5-(1-(3,5-dichloropyridin-4-yl)ethoxy)-7-fluoro-1H-indazol-3-yl)-1H-pyrazol-1-yl)-N,N-dimethylethan-1-amine] | > 100 nM | 10 to 100 nM | 1 to 10 nM | 1 to 10 nM | A (A represents 1 ≤ multiple X<20) | A (A represents 1 ≤ multiple X<20) | C (C represents 50 ≤ multiple X<100)

Reference: patent EP4644383A1 (Jiangsu Yahong Meditech Co., Ltd., priority 2022, dated 2024)
